Reference: patent US20090304827A1, “Combinations of Ingredients Having Synergistic Anti-Inflammatory Effects” (priority 2008, published 2009)

Key:
[1] = test system: LPS-induced NO production; conditions: cited from earlier work
iNOS = conditions: cited from earlier work
[2] = test system: LPS-induced PGE2 production; conditions: cited from earlier work
[3] = test system: LPS-induced nitrite (NO) generation on murine macrophage RAW264.7 cells; assay: Nitrite assay: LPS-induced nitrite (NO) generation, Griess reaction; format: cell-based; conditions: either singly or in combination
Source text: The term “synergy” refers to the phenomenon in which the combination of two or more discrete agents acting together can cause a greater response than simply the sum of the individual effects of each agent if they were used separately. It is not uncommon to find the presence of two or more chemical constituents or herbs on an organism to be greater than the effect of each chemical constituent or herb individually, or the sum of the individual effects. […]
The nitrite concentration in the medium was measured as an indicator of NO production, a common phenomenon of the inflammation process, according to the Griess reaction. […] One hundred microliters of supernatant was mixed with the same volume of Griess reagent (1% sulfanilamide in 5% phosphoric acid and 0.1% naphthylethylenediamine dihydrocholide in water); absorbance of the mixture at 550 nm was determined with an ELISA plate reader (Dynatech MR-7000; Dynatech Laboratories Inc.).
Various combinations of herbal extracts were investigated for anti-inflammatory effect using nitrite assay. For the study, RAW 264.7 cells were treated with LPS (10 μg/mL) to induce nitrite production, various concentrations and combinations thereof were added, and the nitrite concentration in the medium was measured as an indicator of the inhibition of NO production, a common phenomenon of the inflammation process.

[4] = test system: RAW 264.7 cells activated with bacterial lipopolysaccharide; conditions: LPS 50 ng ml^−1; cited from earlier work

O=C(O)[C@H]1O[C@@H](Oc2cc3oc(-c4ccccc4)cc(=O)c3c(O)c2O)[C@H](O)[C@@H](O)[C@@H]1O [Baicalin]
LPS-induced NO production [1]: significantly inhibited
iNOS gene expression / activation [1]: significantly inhibited
iNOS enzyme activity (iNOS): did not inhibit
COX-2 gene expression / activation [2]: not
LPS-induced PGE2 production [2]: not

O=C1O[C@H]([C@@H](O)CO)C(O)=C1O [Vitamin C, L-ascorbate]
anti-inflammatory property (inhibition of NO production) [3]: did not show any noticeable anti-inflammatory property

COc1c(O)cc(O)c2c(=O)cc(-c3ccccc3)oc12 [wogonin]
LPS-induced NO production [1]: significantly inhibited
iNOS gene expression / activation [1]: significantly inhibited
iNOS enzyme activity (iNOS): did not inhibit
COX-2 gene expression / activation [2]: inhibited
LPS-induced PGE2 production [2]: inhibited

COc1c(O)cc2oc(-c3ccccc3)cc(=O)c2c1O [Oroxylin A]
LPS-induced NO production [1]: potent inhibitor
iNOS gene expression / activation [1]: blocking
COX-2 gene expression / activation [2]: blocking
LPS-induced PGE2 production [2]: potent inhibitor

Oc1ccc(C=Cc2cc(O)cc(O)c2)cc1 [Resveratrol]
NO generation in activated macrophages (nitrite released into the culture medium) [4]: strongly to inhibit
amount of cytosolic iNOS protein and steady state mRNA levels [4]: strongly reduced

Tocopherol [vitamin E]
anti-inflammatory property (inhibition of NO production) [3]: did not show any noticeable anti-inflammatory property

O=c1cc(-c2ccccc2)oc2cc(O)c(O)c(O)c12 [baicalein]
LPS-induced NO production [1]: significantly inhibited
iNOS gene expression / activation [1]: significantly inhibited
iNOS enzyme activity (iNOS): did not inhibit
COX-2 gene expression / activation [2]: not
LPS-induced PGE2 production [2]: not
